Assay results reported in article PMC5373622, “Screening for AMPA receptor auxiliary subunit specific modulators” (PLoS ONE, 2017).
“And” between values parts separate entries of the source, which are not always exact repeats. Identical values can stand only once. Like-named read-outs stand apart in the source and are kept apart here.

Columns and labels:
[1] = biological target: GluA2flip(R)-CNIH3 (A2R-C3 TetON HEK293 cells) (Homo sapiens, UniProt P42262, Q607R); experiment: VSD assay (counter-screen, CRC) on A2R-C3 cells; conditions: for CMPDmaxmin: max-min 8-100 s; for CMPDmaxmin / CMPDSlope: compound only; for Glumaxmin: max-min normalized value 301-380 s; for Glumaxmin / GluSlope: compound+glutamate; for BaselineReturn: max 250-255 s minus min 0-5 s; for GluSlope: slope of normalized value 310-315 s; for CMPDSlope: slope 11-18 s
Sequence of GluA2flip(R)-CNIH3 (A2R-C3 TetON HEK293 cells) (P42262 25-883 isoform P42262-2 Q607R limits assumed): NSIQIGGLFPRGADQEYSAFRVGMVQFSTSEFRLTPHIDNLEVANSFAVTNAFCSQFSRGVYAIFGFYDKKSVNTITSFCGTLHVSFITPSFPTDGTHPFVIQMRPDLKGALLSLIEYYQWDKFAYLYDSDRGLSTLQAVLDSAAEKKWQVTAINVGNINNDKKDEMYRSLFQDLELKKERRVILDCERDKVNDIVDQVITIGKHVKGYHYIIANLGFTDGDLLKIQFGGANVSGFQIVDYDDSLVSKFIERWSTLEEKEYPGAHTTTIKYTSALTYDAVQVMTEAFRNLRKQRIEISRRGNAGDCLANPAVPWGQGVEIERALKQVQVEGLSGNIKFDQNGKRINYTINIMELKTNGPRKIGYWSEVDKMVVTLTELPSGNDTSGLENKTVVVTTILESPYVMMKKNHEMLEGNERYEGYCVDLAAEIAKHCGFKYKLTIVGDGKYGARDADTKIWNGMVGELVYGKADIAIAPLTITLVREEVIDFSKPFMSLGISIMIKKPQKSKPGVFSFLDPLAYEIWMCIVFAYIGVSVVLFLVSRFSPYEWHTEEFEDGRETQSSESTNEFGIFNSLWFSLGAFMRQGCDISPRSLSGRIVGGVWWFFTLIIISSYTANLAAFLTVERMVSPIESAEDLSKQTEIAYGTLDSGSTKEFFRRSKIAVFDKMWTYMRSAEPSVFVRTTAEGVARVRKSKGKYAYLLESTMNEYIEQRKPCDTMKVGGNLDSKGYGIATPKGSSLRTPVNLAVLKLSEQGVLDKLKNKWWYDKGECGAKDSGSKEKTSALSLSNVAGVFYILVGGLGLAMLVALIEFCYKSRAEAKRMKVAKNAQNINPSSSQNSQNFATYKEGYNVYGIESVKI
Sequence of GluA2flip(R)-CNIH3 (A2R-C3 TetON HEK293 cells) (Q8TBE1 whole entry partner): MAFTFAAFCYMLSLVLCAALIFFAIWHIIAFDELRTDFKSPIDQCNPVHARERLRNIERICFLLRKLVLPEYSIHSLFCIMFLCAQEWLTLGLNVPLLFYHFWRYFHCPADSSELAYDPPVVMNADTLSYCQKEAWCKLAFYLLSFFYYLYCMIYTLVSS
Excerpt: Cell lines used in the VSD assays were TetON HEK293 cells. This was the parental cell line for all stable cell lines created. We used GluA2flip(R) TetON HEK cell clone #4 that doxycycline (DOX) dependently expresses GluA2flip(R) (A2R). The A2R cells were used as the base cell line to derive cell lines that co-express auxiliary subunits.
(§1) Greiner 384-pp round-bottom plates containing glutamate for the second add were dispensed by hand using a multi-channel pipet at 5X final concentration. A2R-stg cells were plated in 384-well BD PureCoat amine-coated plates (Corning Life Sciences) at 16k cells/well in DMEM medium supplemented with 10% heat-inactivated FBS and 100U/mL PenStrep antibiotic. […] Cells were incubated overnight (O/N) and washed 4 times in HBSS containing 20 mM HEPES, pH 7.4, on an ELX405CW liquid aspirator and dispenser (BioTek). Buffer was left in the wells and an equal amount of 2X FLIPR dye solution was added and incubated on the cells at room temperature for 45 min. Fluorescence signal was collected at 1 Hz using Ex. 480±20 nm/Em. 540±40 nm on a Hamamatsu Functional Drug Screening System 6000 (FDSS). Baseline signal was collected for 10 seconds followed by addition of 10 μl of 5X compound for a final concentration of 10 μM.
This assay was carried out in the same way as the VSD screening assay except a 10-point concentration curve, from 40 μM to 10 nM, was plated in triplicate for each compound on a single 384-well plate. Data were summarized by plotting them as %max GLUslope against log [compound] that was fit to a four-parameter logistical model. %max GLUslope is defined as a normalized GLUslope expressed as a percentage of the mean maximum GLUslope, defined as 100, where background mean vehicle control (VHLslope) were subtracted from both values on a per plate basis. Thus, %max GLU slope = (GLUslope-mean VHLslope/mean maxGLUslope-mean VHLslope).

GluA2-stargazin = conditions: previously reported; cited from earlier work
[2] = biological target: GluA2flip(R)-stargazin (A2R-stg TetON HEK293 cells) (Homo sapiens, UniProt P42262, Q607R); experiment: Voltage-sensitive dye (VSD) assay (primary screen, counter-screen, CRC) on A2R-stg cells; conditions: for CMPDmaxmin (maximal - minimal normalized value, 8-100 s, only compound present) / pctMAX (Glumaxmin as percentage MAX) / pctMAXslope (GluSlope as percentage MAX) / pctMAXslopeCMPD (CMPDSlope as percentage MAX): per well, plate 58169DST7
Sequence of GluA2flip(R)-stargazin (A2R-stg TetON HEK293 cells) (P42262 25-883 isoform P42262-2 Q607R limits assumed): as the sequence (P42262 25-883 isoform P42262-2 Q607R limits assumed) above
Sequence of GluA2flip(R)-stargazin (A2R-stg TetON HEK293 cells) (Q9Y698 whole entry partner): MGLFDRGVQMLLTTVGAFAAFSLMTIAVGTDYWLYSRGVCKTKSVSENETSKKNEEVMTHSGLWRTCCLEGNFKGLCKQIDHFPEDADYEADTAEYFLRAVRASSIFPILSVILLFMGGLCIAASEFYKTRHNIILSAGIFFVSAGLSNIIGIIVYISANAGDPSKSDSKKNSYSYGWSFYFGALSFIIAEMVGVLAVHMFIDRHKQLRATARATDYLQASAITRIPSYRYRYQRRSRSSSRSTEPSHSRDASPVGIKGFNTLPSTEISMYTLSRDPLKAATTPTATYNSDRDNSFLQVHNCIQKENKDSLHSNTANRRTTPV
Description: Cell lines used in the VSD assays were TetON HEK293 cells. […] We used GluA2flip(R) TetON HEK cell clone #4 that doxycycline (DOX) dependently expresses GluA2flip(R) (A2R). The A2R cells were used as the base cell line to derive cell lines that co-express auxiliary subunits.
as §1
Hits were selected from this initial screen using 4 different criteria, which we termed CMPDslope, CMPDmaxmin, GLUslope, and GLUmaxmin. […] GLUslope is the fitted slope of the increase in fluorescence within 10 sec after adding glutamate. GLUmaxmin is the difference in the minimum and maximum value in fluorescence signal reached in the 100 sec window after adding glutamate. Compounds were classified as hits if they differed by 3 standard deviations of the mean for each criterion. Tier 1 hits were classified as those that hit in the GLUslope, GLUmaxmin, and CMPDmaxmin windows. Tier 2 hits were classified as compounds that hit in the GLUslope window and either the GLUmaxmin or CMPDmaxmin window. Tier 3 hits were classified as those that hit in only the GLUslope or the GLUmaxmin window. Tier 4 hits were classified as compounds that hit only in the CMPD window, CMPDslope or CMPDmaxmin. Hit selection was further narrowed using the criterion that their signal must return to near baseline values before entering the glutamate add window.
VSD concentration response curves (CRCs): After the above counter-screens, compounds that remained positive were moved forward to collect complete CRCs for A2R-stg and A2R-C3 cell lines. This assay was carried out in the same way as the VSD screening assay except a 10-point concentration curve, from 40 μM to 10 nM, was plated in triplicate for each compound on a single 384-well plate. Data were summarized by plotting them as %max GLUslope against log [compound] that was fit to a four-parameter logistical model. %max GLUslope is defined as a normalized GLUslope expressed as a percentage of the mean maximum GLUslope, defined as 100, where background mean vehicle control (VHLslope) were subtracted from both values on a per plate basis. Thus, %max GLU slope = (GLUslope-mean VHLslope/mean maxGLUslope-mean VHLslope).

For `O=C(c1ccc2c(c1)OCCO2)N1CCCCC1` [CX-546, 1-(1,4-benzodioxan-6-ylcarbonyl)piperidine], the CMPDmaxmin ([1]; 3.90625e-6 M ligand, per well) was 0.02275 and 0.02429 and 0.01798 and 0.02168, the CMPDmaxmin ([1]; 7.8125e-6 M ligand, per well) was 0.02523 and 0.02353 and 0.02165 and 0.01735 and the Glumaxmin ([1]; 7.8125e-6 M ligand, per well) was 0.04101 and 0.05338 and 0.04284 and 0.03307 and 0.0299 and 0.0291. The CMPDmaxmin ([1]; 6.25e-5 M ligand, per well) was 0.02083 and 0.02655 and 0.02189 and 0.02084 and 0.01632, the Glumaxmin ([1]; 6.25e-5 M ligand, per well) was 0.04091 and 0.0333 and 0.02423 and 0.04193 and 0.044 and 0.03344 and the BaselineReturn ([1]; 0.00025 M ligand, per well) was 0.0251 and 0.02832 and 0.03028 and 0.03411 and 0.02776 and 0.02771. For the same compound, the CMPDmaxmin ([1]; 0.00025 M ligand, per well) was 0.02518 and 0.02777 and 0.02573 and 0.03151 and 0.03447 and 0.02604, the Glumaxmin ([1]; 0.00025 M ligand, per well) was 0.07039 and 0.07337 and 0.08523 and 0.112 and 0.08025 and the GluSlope ([1]; 0.00025 M ligand, per well) was 6.934e-6 and 8.592e-6 and 7.437e-6 and 1.202e-5 and 1.111e-5 and 6.283e-6. The BaselineReturn ([1]; 0.0005 M ligand, per well) was 0.05295 and 0.05148 and 0.05075 and 0.04719 and 0.05673 and 0.04937, the CMPDmaxmin ([1]; 0.0005 M ligand, per well) was 0.05637 and 0.05305 and 0.05109 and 0.05302 and 0.05564 and 0.06158 and the Glumaxmin ([1]; 0.0005 M ligand, per well) was 0.1143 and 0.1458 and 0.1743. The CMPDSlope ([1]; 0.0005 M ligand, per well) was 2.7882e-6 and 3.22e-6 and 3.04e-6 and 3.857e-6 and 3.969e-6 and 3.136e-6, the GluSlope ([1]; 0.0005 M ligand, per well) was 1.038e-5 and 1.007e-5 and 1.121e-5 and 1.228e-5 and 1.22e-5 and 1.66e-5 and the BaselineReturn ([1]; 0.001 M ligand, per well) was 0.1285 and 0.1243 and 0.1327 (2×) and 0.1383 and 0.1333. The CMPDmaxmin ([1]; 0.001 M ligand, per well) was 0.1223 and 0.1248 and 0.1314 and 0.1303 and 0.1374 and 0.1301, the CMPDSlope ([1]; 0.001 M ligand, per well) was 6.79e-6 and 6.675e-6 and 5.635e-6 and 5.488e-6 and 6.247e-6 and 7.073e-6 and the activity at 250 µM ([1]; HEK293, read-out: AVE %MAXCMPDslope, 0.00025 M ligand, average over wells) was 20.2%. It also gave an activity at 1000 µM ([1]; HEK293, read-out: AVE %MAXCMPDslope, 0.001 M ligand, average over wells) of 29.1%, an activity at […] ([1]; HEK293, read-out: AVE %MAXCMPDslope, […] ligand, average over wells) of 18.9% and an activity at 250 µM ([1]; HEK293, read-out: AVE %MAXslope, 0.00025 M ligand, average over wells) of 33.8%. The activity at 500 µM ([1]; HEK293, read-out: AVE %MAXslope, 0.0005 M ligand, average over wells) was 40.3%, the activity at 1000 µM ([1]; HEK293, read-out: AVE %MAXslope, 0.001 M ligand, average over wells) was 54.1% and the activity at […] ([1]; HEK293, read-out: AVE %MAXslope, […] ligand, average over wells) was 25.6%. It also gave an activity at 250 µM ([1]; HEK293, read-out: pctMAXslope, 0.00025 M ligand, GluSlope as percentage MAX, per well) of 30.3%, an activity at 500 µM ([1]; HEK293, read-out: pctMAXslope, 0.0005 M ligand, GluSlope as percentage MAX, per well) of 37% and an activity at […] ([1]; HEK293, read-out: pctMAXslope, […] ligand, GluSlope as percentage MAX, per well) of 21%. The activity at 250 µM ([1]; HEK293, read-out: pctMAXslopeCMPD, 0.00025 M ligand, CMPDSlope as percentage MAX of GluSlope controls, per well) was 19.4%, the activity at 500 µM ([1]; HEK293, read-out: pctMAXslopeCMPD, 0.0005 M ligand, CMPDSlope as percentage MAX of GluSlope controls, per well) was 22.3% and the activity at 1000 µM ([1]; HEK293, read-out: pctMAXslopeCMPD, 0.001 M ligand, CMPDSlope as percentage MAX of GluSlope controls, per well) was 30%. The activity at […] ([1]; HEK293, read-out: pctMAXslopeCMPD, […] ligand, CMPDSlope as percentage MAX of GluSlope controls, per well) was 18.5%, the EC50 (GluA2-stargazin) was 563 µM and the EC50 [2] was 59.4 µM. For the same compound, the “CMPDmaxmin (maximal - minimal normalized value, 8-100 s, only compound present)” value ([2]; 3.90625e-6 M) was 0.02005 and 0.02265 and 0.02255 and 0.0215 and 0.02263, the “pctMAX (Glumaxmin as percentage MAX)” value ([2]; 3.90625e-6 M) was -20.3423% and -18.5877% and -17.4231% and -25.653% and -23.4431% and the “pctMAXslope (GluSlope as percentage MAX)” value ([2]; 3.90625e-6 M) was 19.0119% and 16.1163% and 16.1435% and 23.5293% and 24.5477% and 19.9769%. For the same compound, the “pctMAXslopeCMPD (CMPDSlope as percentage MAX)” value ([2]; 3.90625e-6 M) was 26.8078% and 27.859% and 27.6784% and 25.3948% and 25.8066% and 27.049%, the “CMPDmaxmin (maximal - minimal normalized value, 8-100 s, only compound present)” value ([2]; 7.8125e-6 M) was 0.02204 and 0.02518 and 0.02221 and 0.01901 and the “pctMAXslope (GluSlope as percentage MAX)” value ([2]; 7.8125e-6 M) was 18.0524% and 15.893% and 18.8435% and 18.5798% and 25.5404% and 27.1839%. For the same compound, the “pctMAXslopeCMPD (CMPDSlope as percentage MAX)” value ([2]; 7.8125e-6 M) was 27.7492% and 27.8022% and 28.8582% and 27.2592% and 26.4835% and 26.0048%, the “CMPDmaxmin (maximal - minimal normalized value, 8-100 s, only compound present)” value ([2]; 1.5625e-5 M) was 0.02181 and 0.01695 and 0.02869 and 0.01943 and 0.02297 and the “pctMAXslopeCMPD (CMPDSlope as percentage MAX)” value ([2]; 1.5625e-5 M) was 28.6064% and 25.6086% and 27.9557% and 25.483% and 25.9044% and 26.6639%. For the same compound, the “pctMAX (Glumaxmin as percentage MAX)” value ([2]; 3.125e-5 M) was -24.1315% and -27.3641% and -24.1538% and -25.136% and -22.907% and -18.6431% and the “pctMAXslope (GluSlope as percentage MAX)” value ([2]; 3.125e-5 M) was 27.6745% and 23.6277% and 22.7715% and 21.1161% and 24.5423% and 29.8099%.
